This note sets out measurements from ChEMBL document CHEMBL5550093, “Design, synthesis and antitumor activity of 2-substituted quinazoline-4-amine derivatives” (Bioorg Med Chem, 2024).

The source made the active and inactive calls. The rule behind the calls is not given here.

For series [1], the system named is PC-3. The experiment in a line: Antiproliferative activity against human PC-3 cells at 5 uM incubated for 48 hrs by MTT assay relative to control. Type of series: functional. (In general: Formazan colour is commonly taken as a measure of viable cells.)
Series [2] deals with K562. The experiment in a line: Antiproliferative activity against human K562 cells incubated for 48 hrs by MTT assay. The format is functional, cell-based. To be noted: K562, 48 h.
Series [3] deals with HeLa. The series can be described thus: Antiproliferative activity against human HeLa cells incubated for 48 hrs by MTT assay. The format is functional, cell-based.
The test system of series [4] is PC-3. The series can be described thus: Antiproliferative activity against human PC-3 cells incubated for 48 hrs by MTT assay. Type of series: functional, cell-based. The conditions noted are these: for IC50: PC-3, 48 h; for IC20: PC-3, time 48 hrs.
The test system of series [5] is K562. The series can be described thus: Antiproliferative activity against human K562 cells at 5 uM incubated for 48 hrs by MTT assay relative to control. Type of series: functional.
Series [6] is described as follows: Antiproliferative activity against HEK293T cells incubated for 48 hrs by MTT assay. The format is toxicity, cell-based, HEK-293T. The conditions noted are these: human.
A short description of series [7]: Antiproliferative activity against HEK293T cells at 5 uM incubated for 48 hrs by MTT assay relative to control. To be noted: human. The format is toxicity, cell-based, HEK-293T.
Series [8] relates to PC-3. The series can be described thus: Inhibition of cell survival in human PC-3 cells at 1000 nM pretreated for 48 hrs followed by fresh media replacement without compound measured after 2 weeks by colony formation assay. The format is functional, cell-based.
The subject of series [9] is A549. The experiment in a line: Antiproliferative activity against human A549 cells incubated for 48 hrs by MTT assay. The conditions noted are these: A549, 48 h. The format is functional, cell-based.
The test system of series [10] is A549. The experiment in a line: Antiproliferative activity against human A549 cells at 5 uM incubated for 48 hrs by MTT assay relative to control. The format is functional.
The test system of series [11] is HeLa. The experiment in a line: Antiproliferative activity against human HeLa cells at 5 uM incubated for 48 hrs by MTT assay relative to control. The format is functional.
The test system of series [12] is PC-3. The series can be described thus: Antiproliferative activity against human PC-3 overexpressing WRN cells incubated for 48 hrs by MTT assay. Type of series: functional.

Turning to `COc1ccc(N(C)c2nc([C@@H](N)C(C)C)nc3ccccc23)cc1`, the inhibition at 5 µM with PC-3 [1] turned out to be 51.9%; with K562 [5] it was 85.2%; in the series with A549 [10] it was 72.6%; in the series with HeLa [11], 33.6%. In addition, the half-inhibitory concentration (IC50) in the series with K562 [2] was 8 µM; in the series with HeLa [3], above 10 µM; with PC-3 [4], 8 µM; in the series on A549 [9], above 10 µM. Moreover, the IC20 stood at 7.61 µM with PC-3 [4] and 1.11 µM in the series on PC-3 [12]. Moreover, the IC50 at 48 h in [6] is 7.9 µM. In addition, the inhibition at 48 h, 5 µM in [7] is 59.2%. Besides, the inhibition entry in the series on PC-3 [8] is “Active”.
Regarding `COc1ccc(N(C)c2nc(C(F)(F)c3cccc(OC)c3)nc3ccccc23)cc1`, the inhibition at 5 µM in the series with PC-3 [1] is 57.6%; with K562 [5] it was 61.3%; in the series with A549 [10], 52.7%; in the series with HeLa [11], 47.8%. The IC50 in the series with K562 [2] is 0.3 µM; in the series with HeLa [3], above 10 µM; in the series on PC-3 [4], 5.6 µM; with A549 [9], above 10 µM. Further, the results for the IC20 in the series on PC-3 [4] and with PC-3 [12] were 0.25 µM and 0.144 µM, respectively. The compound also came in with an IC50 at 48 h in series [6] of 2.1 µM. Further, the inhibition at 48 h, 5 µM in [7] came to 56.6%.
`COc1ccc(N(C)c2nc(C(=O)c3cccc(OC)c3)nc3ccccc23)cc1`: the inhibition at 5 µM in the series with PC-3 [1] is 58.1%; with K562 [5], 61.5%; in the series with A549 [10] it was 52%; in the series with HeLa [11], 51%. Moreover, the IC50 with K562 [2] is 9.3 µM; in the series on HeLa [3], above 10 µM; in the series on PC-3 [4], 6.6 µM; with A549 [9], above 10 µM. Also, the IC20 with PC-3 [4] is 0.975 µM; in the series with PC-3 [12] it was 1.07 µM. Further, it took 6.4 µM to reach half-maximal inhibition in series [6] (IC50 at 48 h). In series [7], this compound had an inhibition at 48 h, 5 µM of 59.6%.
`COc1cccc(C(F)(F)c2nc(N(C)c3ccc(OC)c(OC)c3)c3ccccc3n2)c1`: the inhibition at 5 µM in the series with PC-3 [1] was found to be 62.7%; with K562 [5], 65.5%; with A549 [10], 53.2%; in the series with HeLa [11], 51.2%. Moreover, the IC50 in the series with K562 [2] was 0.05 µM; in the series on HeLa [3], above 10 µM; with PC-3 [4], above 10 µM; in the series on A549 [9] it was above 10 µM. Moreover, the values for the IC20 in the series on PC-3 [4] and in the series with PC-3 [12] were 0.981 µM and 0.123 µM, respectively. Moreover, the IC50 at 48 h in series [6] came to 1.1 µM. Besides, the inhibition at 48 h, 5 µM in series [7] is 63.6%. For the same compound, the inhibition result in the series on PC-3 [8] is “Active”.

The inhibition is the change of the read-out against control, counted positive when it falls. The IC50 is the point on the concentration scale where inhibition reaches its midpoint. High values mean a need for much substance, low ones inhibition by little substance. Broadly, the IC20 is the concentration at which the effect reaches the 20% level.
